# According to patent US20250345512A1, “COMBINATION SODIUM-GLUCOSE COTRANSPORTER INHIBITOR (SGLTI) INSULIN THERAPY FOR GLYCEMIC CONTROL IN TYPE 1 DIABETES” (University of Virginia Patent Foundation, priority 2022, published 2025):
# System: participants with T1D
# Test: Randomized crossover clinical trial (NCT04201496): CGM glycemic outcomes with 5 mg daily empagliflozin adjunctive to AID (Control-IQ, CIQ) or PLGS (Basal-IQ, BIQ)
# Type: in vivo, human
# Settings: for % CGM time <50 mg/dL (<2.8 mmol/L) / % CGM time <60 mg/dL (<3.3 mmol/L) / % CGM time <70 mg/dL (<3.9 mmol/L) / % CGM time >180 mg/dL (>10.0 mmol/L) / % CGM time >250 mg/dL (>13.9 mmol/L) / % CGM time >300 mg/dL (>16.7 mmol/L) / CGM HBGI / CGM LBGI: median (IQR)
# Procedure: FIG. 2 presents a study analysis relative to baseline, control IQ (CIQ) (e.g., AID), and basal IQ (BIQ) (e.g., PLGS) implementation, according to investigation that is demonstrable of one or more embodiments herein. Therein, an experimental arm (G1, G2) providing an initial daily dose of 5 mg empagliflozin (EMPA) is depicted against a control arm (G3, G4) without such dosing (NOEMPA). Relative characteristics of the analysis are provided below.
# Study Design: A single-center, randomized, controlled, unblinded, crossover clinical trial (NCT04201496) compared four parallel groups, two groups in the experimental arm (EMPA) with 5 mg daily empagliflozin as adjunctive therapy to PLGS or AID, and two groups in the control arm (NOEMPA) with no drug and with a PLGS system (Basal-IQ, Tandem Diabetes Care) or AID system (Control-IQ, Tandem Diabetes Care). The groups within each arm differed from one another in the order of the randomly assigned crossover technological intervention, relative to PLGS being followed by AID or AID being followed by PLGS, respectively (FIG. 4). The study protocol was approved by the University of Virginia Institutional Review Board (IRB). An investigational device exemption (IDE), including an investigational new drug (IND) application for empagliflozin, was approved by the FDA. Safety aspects were overseen by an external data and safety monitoring board (DSMB). Participants: Major inclusion criteria were T1D treated with insulin for at least one year, use of continuous subcutaneous insulin infusion therapy for at least six months, age 18-65 yrs., no use of glucose lowering agents other than insulin, and Hb1Ac<9% (75 mmol/mol). Randomization: A (1:1:1:1) randomization assigned participants to either Group 1, AID-EMPA (4 weeks) followed by PLGS-EMPA (2 weeks), Group 2, PLGS-EMPA (2 weeks) followed by AID-EMPA (4 weeks), Group 3, AID-NOEMPA (4 weeks) followed by PLGS-NOEMPA (2 weeks), and Group 4, PLGS-NOEMPA (2 weeks) followed by AID-NOEMPA (4 weeks). Procedures: After confirmation of eligibility, participants underwent study equipment and medication training (experimental arm), or only study equipment training (control arm). Study equipment consisted of Dexcom G6® CGM (Dexcom Inc., San Diego, CA), Contour® Next blood glucose (Ascensia Diabetes Care, Basel, Switzerland) and Precision Xtra® blood ketone meters (Abbott, Alameda, CA) with their respective test strips; infusion sets, and the use of the t:slim X2™ insulin pump with Basal-IQ or Control-IQ technologies (Tandem Diabetes Care, San Diego, CA), according to randomization. […] Participants in the experimental arm were asked to record two days of baseline ketone values before initiating the use of the study drug. Thereafter, participants were directed to use the study CGM with EMPA for 1-2 weeks. A tolerance to the medication was assessed prior to the starting of the next study phase, including adherence to the protocol, ketone testing 2-4 times per day with monitored values not greater than 0.6 mmol/L on at least two successive occasions (the first testing upon waking in a fasted state), no adverse events relating to perineal infection or symptomatic postural hypotension, and no evidence of significant hypoglycemia <54 mg/dL, or any other listed adverse effects of the medication. Participants in the control arm were directed to use the study CGM for 1-2 weeks. Sample Size: The total sample size was projected to be 40 participants, assuming 1) 1:1:1:1 randomization; 2) 90% power and type 1 error a=0.01, further reinforcing the feasibility of hierarchical analyses. The projected recruitment sample was n=50, to accommodate up to 20% attrition rate without sacrificing statistical power. Analytical methods: For the primary analysis, TIR during the day in the 4-week AID period was compared between the two EMPA groups versus the two NOEMPA groups using a linear mixed-effects regression model while adjusting for pre-randomization HbAlc and age. […]
# [1] = overall, CIQ-EMPA vs. BIQ-NOEMPA, BIQ-EMPA vs. CIQ-NOEMPA
# [2] = overall, CIQ-EMPA vs. CIQ-NOEMPA, BIQ-EMPA vs. BIQ-NOEMPA
# [3] = overall, CIQ-EMPA vs. CIQ-NOEMPA, BIQ-EMPA vs. BIQ-NOEMPA, listed as AID-EMPA
# [4] = overnight, CIQ-EMPA vs. BIQ-EMPA
# [5] = overnight, CIQ-EMPA vs. BIQ-EMPA, listed as AID-EMPA
# [6] = overnight, CIQ-EMPA vs. BIQ-NOEMPA, BIQ-EMPA vs. CIQ-NOEMPA
# [7] = overnight, CIQ-EMPA vs. CIQ-NOEMPA, BIQ-EMPA vs. BIQ-NOEMPA
smiles,measurement,setting,value
"OC[C@H]1O[C@@H](c2ccc(Cl)c(Cc3ccc(O[C@H]4CCOC4)cc3)c2)[C@H](O)[C@@H](O)[C@@H]1O [CIQ-EMPA, empagliflozin]",Difference: CGM HBGI,[1],−5.4
same,Difference: CGM LBGI,[1],−0.1
same,Difference: % CGM time >180 mg/dL (>10.0 mmol/L),[2],−22.3 percentage points
same,Difference: CGM HBGI,[2],−2.7
same,Difference: CGM LBGI,[2],0
same,Difference: CGM SD,[2],-12.3 mg/dL
same,Difference: % CGM time 70-180 mg/dL (<3.9-10.0 mmol/L),[3],+14.7 percentage points
same,Difference: % CGM time >180 mg/dL (>10.0 mmol/L),[3],−12.3 percentage points
same,Difference: % CGM time >250 mg/dL (>13.9 mmol/L),[3],−4.9 percentage points
same,% CGM time <70-140 mg/dL (<3.9-7.8 mmol/L),"overall, n = 16, mean ± SD",59.6 ± 13.7%
same,% CGM time <70-180 mg/dL (<3.9-10.0 mmol/L),"overall, n = 16, mean ± SD",83 ± 10.6%
same,CGM CV (%),"overall, n = 16, mean ± SD",29.4 ± 3.6%
same,CGM SD,"overall, n = 16, mean ± SD",40.5 ± 9.4 mg/dL
same,Mean CGM glucose,"overall, n = 16, mean ± SD",137 ± 18.6 mg/dL
same,% CGM time <50 mg/dL (<2.8 mmol/L),"overall, n = 16",0(0-0.2) %
same,% CGM time <60 mg/dL (<3.3 mmol/L),"overall, n = 16",0.3(0.1-0.5) %
same,% CGM time <70 mg/dL (<3.9 mmol/L),"overall, n = 16",1.1(0.5-1.5) %
same,% CGM time >180 mg/dL (>10.0 mmol/L),"overall, n = 16",11.5(7-19) %
same,% CGM time >250 mg/dL (>13.9 mmol/L),"overall, n = 16",1.1(0.2-2.9) %
same,% CGM time >300 mg/dL (>16.7 mmol/L),"overall, n = 16",0(0-0.5) %
same,CGM HBGI,"overall, n = 16",2.7(2-4.4)
same,CGM LBGI,"overall, n = 16",0.5(0.4-0.6)
same,Difference (95% CI): % CGM time 70 mg/dL (<3.9 mmol/L),[4],−1.5 percentage points
same,Difference (95% CI): % CGM time <50 mg/dL (<2.8 mmol/L),[4],0.2 percentage points
same,Difference (95% CI): % CGM time <60 mg/dL (<3.3 mmol/L),[4],−0.4 percentage points
same,Difference (95% CI): % CGM time >250 mg/dL (>13.9 mmol/L),[4],−2.5 percentage points
same,Difference (95% CI): % CGM time >300 mg/dL (>16.7 mmol/L),[4],−2.5 percentage points
same,Difference (95% CI): CGM CV (%),[4],−5.1%
same,Difference (95% CI): CGM HBGI,[4],−2.1
same,Difference (95% CI): CGM LBGI,[4],−0.5
same,Difference (95% CI): CGM SD,[4],-10.2 mg/dL
same,Difference (95% CI): Mean CGM glucose,[4],-11.7 mg/dL
same,Difference (95% CI): % CGM time 70-180 mg/dL (3.9-10.0 mmol/L),[5],+10.2 percentage points
same,Difference (95% CI): % CGM time >180 mg/dL (>10.0 mmol/L),[5],−9.5 percentage points
same,Difference (95% CI): % CGM time <60 mg/dL (<3.3 mmol/L),[6],−0.3 percentage points
same,Difference (95% CI): % CGM time >180 mg/dL (>10.0 mmol/L),[6],−27.3 percentage points
same,Difference (95% CI): % CGM time >250 mg/dL (>13.9 mmol/L),[6],−16.4 percentage points
same,Difference (95% CI): % CGM time >300 mg/dL (>16.7 mmol/L),[6],−7.6 percentage points
same,Difference (95% CI): CGM CV (%),[6],−11.1%
same,Difference (95% CI): CGM HBGI,[6],−7.3
same,Difference (95% CI): CGM LBGI,[6],−0.3
same,Difference (95% CI): CGM SD,[6],-27.1 mg/dL
same,Difference (95% CI): Mean CGM glucose,[6],-36.2 mg/dL
same,Difference (95% CI): % CGM time 70 mg/dL (<3.9 mmol/L),[7],−1.1 percentage points
same,Difference (95% CI): % CGM time <50 mg/dL (<2.8 mmol/L),[7],−0.1 percentage points
same,Difference (95% CI): % CGM time <60 mg/dL (<3.3 mmol/L),[7],−0.6 percentage points
same,Difference (95% CI): % CGM time >180 mg/dL (>10.0 mmol/L),[7],−14.6 percentage points
same,Difference (95% CI): % CGM time >250 mg/dL (>13.9 mmol/L),[7],−5.5 percentage points
same,Difference (95% CI): CGM HBGI,[7],−3.2
same,Difference (95% CI): CGM LBGI,[7],0.2
same,Difference (95% CI): CGM SD,[7],-18.3 mg/dL
same,Difference (95% CI): Mean CGM glucose,[7],-21.5 mg/dL
same,% CGM time 70-140 mg/dL (3.9-7.8 mmol/L),"overnight, n = 16, mean ± SD",64 ± 18%
same,% CGM time 70-180 mg/dL (3.9-10.0 mmol/L),"overnight, n = 16, mean ± SD",87 ± 13%
same,CGM CV (%),"overnight, n = 16, mean ± SD",25.4 ± 5.4%
same,CGM SD,"overnight, n = 16, mean ± SD",34.2 ± 10.7 mg/dL
same,Mean CGM glucose,"overnight, n = 16, mean ± SD",133 ± 20 mg/dL
same,% CGM time <50 mg/dL (<2.8 mmol/L),"overnight, n = 16",0(0-0.3) %
same,% CGM time <60 mg/dL (<3.3 mmol/L),"overnight, n = 16",0.3(0-0.5) %
same,% CGM time <70 mg/dL (<3.9 mmol/L),"overnight, n = 16",0.7(0-1.3) %
same,% CGM time >180 mg/dL (>10.0 mmol/L),"overnight, n = 16",6.3(3.3-11.1) %
same,% CGM time >250 mg/dL (>13.9 mmol/L),"overnight, n = 16",0(0-2) %
same,% CGM time >300 mg/dL (>16.7 mmol/L),"overnight, n = 16",0(0-0.4) %
same,CGM HBGI,"overnight, n = 16",2.1(1.3-2.7)
same,CGM LBGI,"overnight, n = 16",0.4(0.2-0.5)
same,"night-time in range, h out of 8 h","overnight, out of 8 h of the night-time, listed as AID-EMPA",7 h
